Results published in ChEMBL document CHEMBL3046799, “Synthesis and in vivo anticancer and antiangiogenic effects of novel thioxothiazolidin-4-one derivatives against transplantable mouse tumor” (2010).
The source made the active and inactive calls. The rule behind the calls is not given here.

Experiments:
[1] = Antitumor activity against Mus musculus (mouse) EAT xenografted in Mus musculus (mouse) assessed as increase in life span at 100 mg/kg, ip administered day 7 to 11 post tumor implantation measured up to 28 days relative to control; format: functional; settings: route intraperitoneal
[2] = (§1) Antitumor activity against Mus musculus (mouse) EAT xenografted in Mus musculus (mouse) assessed as decrease in tumor volume at 100 mg/kg, ip administered day 7 to 11 post tumor implantation measured on day 12 (reference value: 7.6 +/- 0.9 ml); format: functional; settings: route intraperitoneal
EAT [3] = assay: Antiangiogenic activity in Mus musculus (mouse) EAT xenografted in Mus musculus (mouse) assessed as reduction of vascularization at 100 mg/kg, ip administered day 7 to 11 post tumor implantation measured on day 12 relative to control; format: functional, organism-based; design: dose 100 mg/kg
EAT [4] = assay: Antitumor activity against Mus musculus (mouse) EAT xenografted in Mus musculus (mouse) assessed as decrease in body weight at 100 mg/kg, ip administered day 7 to 11 post tumor implantation measured on day 12 relative to control
EAT [5] = assay: as §1; format: functional

SMILES | Activity [1] [%] | Activity [2] [mL] | Activity (EAT [3]) | Activity (EAT [4]) | Activity (EAT [5])
Cc1nc(-c2ccc(NC(=O)CN3C(=O)/C(=C/c4ccc(-c5ccc(Cl)cc5)o4)SC3=S)cc2)no1 | 43.75 | 5.2 | Active | Active | 
CCCCNC(=O)CN1C(=O)/C(=C/c2ccc(-c3ccc(Cl)cc3)o2)SC1=S | 12.5 |  | Active | Active | 
O=C(CN1C(=O)/C(=C/c2ccc(-c3ccc(Cl)cc3)o2)SC1=S)N1CCN(c2ccccc2F)CC1 | 31.25 |  | Active | Active | Active
COc1ccc(Cn2nc(C3CC3)cc2NC(=O)CN2C(=O)/C(=C/c3ccc(-c4ccc(Cl)cc4)o3)SC2=S)cc1 | 56.25 | 4.8 | Active | Active | 
COC(=O)C(Cc1ccc(O)cc1)NC(=O)CN1C(=O)/C(=C/c2ccc(-c3ccc(Cl)cc3)o2)SC1=S (configuration not stated) | 25 |  | Active | Active | Active
O=C(CN1C(=O)/C(=C/c2ccc(-c3ccc(Cl)cc3)o2)SC1=S)Nc1ccon1 | 18.25 |  | Active | Active | Active
COc1ccc(CCNC(=O)CN2C(=O)/C(=C/c3ccc(-c4ccc(Cl)cc4)o3)SC2=S)cc1 | 37.5 | 5.7 | Active | Active | 
